Non-standard residues stand in square brackets, D forms with d. Residues, ends and D or L forms follow the SMILES beside them.
Molecular target: T1, rat GalR3 receptor (Rattus norvegicus, UniProt O88626)
T1 construct: expressed in transfected cells; host or cells: COS-7 cells (ATCC CRL 1651), transient electroporation with pCR 3.1; membrane preparation
T1 sequence (O88626 1-370 P53Q/R54G/T57Q/P127Q/R137C/A150G/W176L/A183R/T188A/F210L/C272I/R311C): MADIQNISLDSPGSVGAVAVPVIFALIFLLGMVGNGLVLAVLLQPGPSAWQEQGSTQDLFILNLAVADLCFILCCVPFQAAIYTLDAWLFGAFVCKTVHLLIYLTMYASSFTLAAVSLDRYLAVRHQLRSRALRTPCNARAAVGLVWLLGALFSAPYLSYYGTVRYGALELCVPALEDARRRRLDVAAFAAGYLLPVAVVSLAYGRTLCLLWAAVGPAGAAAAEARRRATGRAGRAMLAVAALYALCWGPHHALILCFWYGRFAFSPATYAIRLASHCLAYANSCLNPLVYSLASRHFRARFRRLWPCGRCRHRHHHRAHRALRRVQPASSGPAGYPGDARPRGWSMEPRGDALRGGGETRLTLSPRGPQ
Assay: 125I-porcine galanin competition binding to membranes of COS-7 cells transfected with rat GalR3 receptor
Settings: FIG. 2, 125I-porcine galanin binding to rat GalR3 membranes
Protocol: Transfection was carried out as follows. Confluent COS-7 cells (ATCC CRL 1651) grown in DMEVI supplemented with 10% fetal calfserum (FCS) with 100 units/ml penicillin and 100 μg/ml streptomycin were split 1:6 into 150 mm dishes (Nunc) three days prior to transfection. On the day of transfection, the cells were approximately 90% confluent and trypsinized off plates and washed two times with PBS without Mg^++ and Ca^++. The cells were resuspended in Krebs Ringer's buffer at a density of approximately 1.2×10^7 cells/ml. […]
To each plate, 5 ml of 5 mM Hepes buffer (pH 7.4), 0.1 mM PMSF, and 0.1 mg/ml bacitracin were added and incubated at room temperature for 15 minutes. […] Protein concentrations were determined using a […] (bicinchoninic acid) method (Pierce, Rockford, Ill.).
Binding of ^125I-porcine-galanin to the membrane preparations was performed in a buffer containing 25 mM Tris-Cl (pH7.4), 1% bovine serim albumin (w/v), 0.1% bacitracin, 2 μg/ml leupeptin and 10 mM MgCl2. […] All data were analyzed using non-linear regression software (Prism, GraphPad, San Diego, Calif.), and the Ki was calculated using the method of Cheng and Prusoff [Biochem. Pharmacol. 22:3099-3108 (1973)].

| SMILES | competitive inhibition of the labeled galanin |
| --- | --- |
| CC(C)C[C@H](NC(=O)[C@H](CC(C)C)NC(=O)[C@@H](Cc1c[nH]c2ccccc12)NC(=O)[C@H](Cc1ccccc1)NC(=O)[C@@H](Cc1c[nH]c2ccccc12)NC(=O)[C@H](CCC(N)=O)NC(=O)[C@H](CCC(N)=O)NC(=O)[C@@H]1CCCN1C(=O)[C@H](CCCCN)NC(=O)[C@@H]1CCCN1C(=O)[C@@H](CCCNC(=N)N)NC(=O)[C@@H]1CCCN1C(=O)CNC(=O)[C@H](CC(C)C)NC(=O)[C@H](CC(C)C)NC(=O)[C@H](Cc1ccc(O)cc1)NC(=O)CNC(=O)[C@H](C)NC(=O)[C@H](CO)NC(=O)[C@H](CC(N)=O)NC(=O)[C@H](CC(C)C)NC(=O)[C@@H](NC(=O)[C@H](Cc1c[nH]c2ccccc12)NC(=O)CN)[C@@H](C)O)C(N)=O [chimeric galanin peptide C7] (H-GWTLNSAGYLLGP[dR]PKPQQ[dW]F[dW]LL-NH2; N-terminus and C-terminus assumed) | competitive inhibitors |
| CC[C@H](C)[C@H](NC(=O)[C@H](C)NC(=O)[C@H](Cc1c[nH]cn1)NC(=O)[C@@H]1CCCN1C(=O)CNC(=O)[C@H](CC(C)C)NC(=O)[C@H](CC(C)C)NC(=O)[C@H](Cc1ccc(O)cc1)NC(=O)CNC(=O)[C@H](C)NC(=O)[C@H](CO)NC(=O)[C@H](CC(N)=O)NC(=O)[C@H](CC(C)C)NC(=O)[C@@H](NC(=O)[C@@H](N)Cc1c[nH]c2ccccc12)[C@@H](C)O)C(=O)N[C@@H](CC(=O)O)C(=O)N[C@@H](CC(N)=O)C(=O)N[C@@H](Cc1c[nH]cn1)C(=O)N[C@@H](CCCNC(=N)N)C(=O)N[C@@H](CO)C(=O)N[C@@H](Cc1ccccc1)C(=O)N[C@@H](CO)C(=O)N[C@@H](CC(=O)O)C(=O)N[C@@H](CCCCN)C(=O)N[C@@H](Cc1c[nH]cn1)C(=O)NCC(=O)N[C@@H](CC(C)C)C(=O)N[C@H](C(N)=O)[C@@H](C)O [galanin(2-29)] | competitive inhibitors |

— patent US7417122B2, “Mammalian galanin receptors” (Schering Corporation, priority 1997, dated 2008)
